This is an account of results in patent US20160361330A1 (priority 2014, published 2016).

Each structure is given as a SMILES string. Read-outs that look alike come from different tables or passages of the source.

Experiment [1] relates to NiV (Nipah virus). Kind of experiment: microbe, parasite or virus in culture. The class given is cell-based. The settings on record: Henipavirus nipahense, HeLa, read-out: EC50 (nM) Yield NiV Hela.
The subject of experiment [2] is ebolavirus (EBOV) strain Zaire. Kind of experiment: organism not typed. The note with it: Macrophage, read-out: EC50 (nM) Antigen expression (high content imaging) Ebola Macrophage. In kind it is cell-based, Ebola virus.
The test system of experiment [3] is NiV-Luc (Nipah virus expressing the luciferase reporter gene). Description: microbe, parasite or virus in culture. The note with it: Henipavirus nipahense, read-out: EC50 (nM) Reporter Virus NiV Luc HMVEC-TERT. The class given is cell-based.
Experiment [4] has as its system NiV (Nipah virus). Kind of experiment: microbe, parasite or virus in culture. In kind it is cell-based. The note with it: Henipavirus nipahense, HeLa, read-out: EC50 (nM) CPE NiV Hela.
In experiment [5] the test system is EBOV-Luc (Ebola virus expressing the luciferase reporter gene). Kind of experiment: microbe, parasite or virus in culture. The settings on record: Zaire ebolavirus, Huh-7, read-out: EC50 (nM) Reporter Virus EVOV-Luc Huh-7. The class given is cell-based.
Experiment [6] has as its system MARV-GFP (Marburg virus expressing the GFP reporter gene). Kind of experiment: organism not typed. The settings on record: Huh-7, read-out: EC50 (nM) Reporter Virus MARV-GFP Huh-7. The class given is cell-based.
The subject of experiment [7] is NiV GFP (Nipah virus expressing the GFP reporter gene). Description: microbe, parasite or virus in culture. The settings on record: Henipavirus nipahense, read-out: EC50 (nM) Reporter Virus NiV GFP HMVEC-TERT. The class given is cell-based.
The test system of experiment [8] is EBOV-GFP (Ebola virus expressing the GFP reporter gene). Kind of experiment: microbe, parasite or virus in culture. In kind it is cell-based. The settings on record: Zaire ebolavirus, read-out: EC50 (nM) Reporter Virus EBOV-GFP HMVEC-TERT.
For experiment [9] the test system is unchanged. Kind of experiment: microbe, parasite or virus in culture. The class given is cell-based. The note with it: Zaire ebolavirus, Huh-7, read-out: EC50 (nM) Reporter Virus EBOV-GFP Huh-7.
The test system of experiment [10] is ebolavirus (EBOV) strain Zaire. Kind of experiment: organism not typed. In kind it is cell-based, Ebola virus. The settings on record: HeLa, read-out: EC50 (nM) Antigen expression (high content imaging) Ebola Hela.

As usually defined, the EC50 is the concentration giving half of the maximal effect. `N#C[C@@]1(c2ccc3c(N)ncnn23)O[C@H](CO)[C@@H](O)[C@H]1O` [Compound 1, (2R, 3R, 4S, 5R)-2-(4-aminopyrrolo[1,2-f][1,2,4]triazin-7-yl)-3,4-dihydroxy-5-(hydroxymethyl)tetrahydrofuran-2-carbonitrile]: the concentration giving a half-maximal response (EC50) is 1000 nM with NiV (Nipah virus) [1]; more than 20000 nM in experiment [2]; 3500 nM in [3]; 1480 nM in the experiment with NiV (Nipah virus) [4]; 3130 nM in experiment [5]; 1730 nM in experiment [6]. In addition, the EC50 in [7] is 13400 nM; in experiment [8] it was 771 nM; in experiment [9], 1490 nM; in [10], more than 20000 nM.
